According to PubChem BioAssay AID330 (DTP/NCI, 2004):
Values joined by “and” are separate entries in the source; they are usually repeats but may differ in a detail not shown here. Identical values can stand only once. Inconclusive results and toxic doses are left out.

Test system: P388 leukemia ip, CD2F1 mice, survival T/C
Assay: NCI In Vivo Anticancer Drug Screen. Data for tumor model P388 Leukemia (intraperitoneal) in CD2F1 (CDF1) mice
Conditions: endpoint: median survival time, higher = longer survival
Procedure, shortened: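 Mice carrying the transplanted tumor received test compound or vehicle. Survival was recorded in each group, and the value is the treated-group measurement divided by that of the vehicle-treated control group.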

[1] = dose: 12.5 mg/kg/injection, schedule: Q01DX009 (ip), vehicle: Klucel (hydroxypropylcellulose) (HPC)
[2] = dose: 25.0 mg/kg/injection, schedule: Q01DX009 (ip), vehicle: Klucel (hydroxypropylcellulose) (HPC)
[3] = dose: 50.0 mg/kg/injection, schedule: Q01DX009 (ip), vehicle: Klucel (hydroxypropylcellulose) (HPC)
[4] = dose: 100.0 mg/kg/injection, schedule: Q01DX009 (ip), vehicle: Klucel (hydroxypropylcellulose) (HPC)
[5] = dose: 200.0 mg/kg/injection, schedule: Q01DX009 (ip), vehicle: Klucel (hydroxypropylcellulose) (HPC)
[6] = dose: 60.0 mg/kg/injection, schedule: Q01DX005 (ip), vehicle: saline with Tween-80
[7] = dose: 120.0 mg/kg/injection, schedule: Q01DX005 (ip), vehicle: saline with Tween-80
[8] = dose: 240.0 mg/kg/injection, schedule: Q01DX005 (ip), vehicle: saline with Tween-80
[9] = dose: 50.0 mg/kg/injection, schedule: Q01DX005 (ip), vehicle: saline with Tween-80
[10] = dose: 100.0 mg/kg/injection, schedule: Q01DX005 (ip), vehicle: saline with Tween-80
[11] = dose: 200.0 mg/kg/injection, schedule: Q01DX005 (ip), vehicle: saline with Tween-80
[12] = dose: 6.25 mg/kg/injection, schedule: Q01DX009 (ip), vehicle: saline with Tween-80
[13] = dose: 12.5 mg/kg/injection, schedule: Q01DX009 (ip), vehicle: saline with Tween-80
[14] = dose: 25.0 mg/kg/injection, schedule: Q01DX009 (ip), vehicle: saline with Tween-80
[15] = dose: 50.0 mg/kg/injection, schedule: Q01DX009 (ip), vehicle: saline with Tween-80
[16] = dose: 100.0 mg/kg/injection, schedule: Q01DX009 (ip), vehicle: saline with Tween-80
[17] = dose: 200.0 mg/kg/injection, schedule: Q01DX009 (ip), vehicle: saline with Tween-80

CC1=C/C(=N\[Se]c2ccccc2)C(=O)C(C)=C1
T/C (dose: 100.0 mg/kg/injection, schedule: Q04DX003 (ip), vehicle: Klucel (hydroxypropylcellulose) (HPC)): 100 % of control
T/C (dose: 200.0 mg/kg/injection, schedule: Q04DX003 (ip), vehicle: Klucel (hydroxypropylcellulose) (HPC)): 91 % of control
T/C (dose: 400.0 mg/kg/injection, schedule: Q04DX003 (ip), vehicle: Klucel (hydroxypropylcellulose) (HPC)): 96 % of control

Cc1ccc(NS(=O)(=O)N2CCCCC2)cc1
T/C [1]: 106 % of control
T/C [2]: 95 % of control
T/C [3]: 98 % of control
T/C [4]: 116 % of control
T/C [5]: 115 % of control
T/C (dose: 400.0 mg/kg/injection, schedule: Q01DX009 (ip), vehicle: Klucel (hydroxypropylcellulose) (HPC)): 113 % of control

COC(=O)C1(CC(=O)c2ccc3ccccc3c2)NC(=S)NC(=O)C1C#N (centres undefined)
T/C [6]: 95 % of control
T/C [7]: 95 % of control
T/C [8]: 91 % of control

OCC(O)C(O)C(O)c1nn(-c2ccccc2)c2nc3ccccc3nc12 (centres undefined)
T/C (dose: 25.0 mg/kg/injection, schedule: Q01DX005 (ip), vehicle: saline with Tween-80): 94 % of control
T/C [9]: 100 % of control and 90 % of control
T/C [10]: 90 % of control
T/C [11]: 90 % of control

COC[n+]1cccc(C2CCC[N+]2(C)C)c1 (centres undefined)
T/C (dose: 50.0 mg/kg/injection, schedule: Q01DX009 (ip), vehicle: saline): 101 % of control
T/C (dose: 100.0 mg/kg/injection, schedule: Q01DX009 (ip), vehicle: saline): 107 % of control
T/C (dose: 200.0 mg/kg/injection, schedule: Q01DX009 (ip), vehicle: saline): 114 % of control

OC(c1cc(-c2ccc(C(F)(F)F)cc2)nc(-c2ccc(C(F)(F)F)cc2)c1)C1CCCCN1 (centres undefined)
T/C [12]: 109 % of control
T/C [13]: 107 % of control
T/C [14]: 89 % of control

O=C1CC2(C(=O)N1)c1ccccc1-c1ccccc12
T/C [15]: 96 % of control
T/C [16]: 103 % of control
T/C [17]: 119 % of control

CC(=O)c1c(O)c2cccc3c2n(c1=O)CCC3
T/C (dose: 60.0 mg/kg/injection, schedule: Q01DX005 (ip), vehicle: Klucel (hydroxypropylcellulose) (HPC)): 96 % of control
T/C (dose: 120.0 mg/kg/injection, schedule: Q01DX005 (ip), vehicle: Klucel (hydroxypropylcellulose) (HPC)): 97 % of control

Cc1oc2ccccc2c(=O)c1CO
T/C [6]: 104 % of control
T/C [7]: 100 % of control
T/C [8]: 100 % of control

CN1C2CCC1C1N=NN(c3cc(C(F)(F)F)cc(C(F)(F)F)c3)C1(N1CCOCC1)C2 (centres undefined)
T/C (dose: 50.0 mg/kg/injection, schedule: Q01DX005 (ip), vehicle: Klucel + Tween-80): 102 % of control
T/C (dose: 100.0 mg/kg/injection, schedule: Q01DX005 (ip), vehicle: Klucel + Tween-80): 97 % of control

CSc1nc(SC)c2nc(SC)n(-c3ccccc3)c2n1
T/C (dose: 3.13 mg/kg/injection, schedule: Q01DX009 (ip), vehicle: saline with Tween-80): 102 % of control
T/C [12]: 104 % of control
T/C [13]: 101 % of control
T/C [14]: 97 % of control

CS(=O)(=O)OCCN(CCOS(C)(=O)=O)c1ccc(C(=O)O)cc1
T/C [14]: 159 % of control
T/C [15]: 168 % of control and 190 % of control
T/C [16]: 175 % of control
T/C (dose: 132.0 mg/kg/injection, schedule: Q04DX003 (ip), vehicle: saline with Tween-80): 159 % of control

O=C/C=C/c1ccc2c(c1)OC(CO)C(c1ccc(O)c(O)c1)O2 (centres undefined)
T/C (dose: 3.12 mg/kg/injection, schedule: Q01DX005 (ip), vehicle: Klucel (hydroxypropylcellulose) (HPC)): 86 % of control
T/C (dose: 6.25 mg/kg/injection, schedule: Q01DX005 (ip), vehicle: Klucel (hydroxypropylcellulose) (HPC)): 91 % of control

Cc1nc(-c2ccccc2-n2cccc2)no1
T/C [15]: 104 % of control
T/C [16]: 102 % of control

O=[N+]([O-])c1ccccc1N=Nc1c(-c2ccccc2)nn(C(=S)S)c1-c1ccccc1
T/C (dose: 25.0 mg/kg/injection, schedule: Q04DX002 (ip), vehicle: Klucel (hydroxypropylcellulose) (HPC)): 99 % of control
T/C (dose: 50.0 mg/kg/injection, schedule: Q04DX002 (ip), vehicle: Klucel (hydroxypropylcellulose) (HPC)): 101 % of control
T/C (dose: 100.0 mg/kg/injection, schedule: Q04DX002 (ip), vehicle: Klucel (hydroxypropylcellulose) (HPC)): 105 % of control
T/C (dose: 200.0 mg/kg/injection, schedule: Q04DX002 (ip), vehicle: Klucel (hydroxypropylcellulose) (HPC)): 112 % of control

CSC(=S)Nc1nc2ccc(Cl)cc2s1
T/C (dose: 6.25 mg/kg/injection, schedule: Q01DX009 (ip), vehicle: Klucel (hydroxypropylcellulose) (HPC)): 104 % of control
T/C [1]: 111 % of control
T/C [2]: 88 % of control

CCOC(=O)C1(n2[nH]c(=O)n(-c3ccccc3)c2=O)CC(C)OC1=O (centres undefined)
T/C [3]: 94 % of control
T/C [4]: 91 % of control
T/C [5]: 91 % of control

Cc1nsnc1CCO
T/C (dose: 100.0 mg/kg/injection, schedule: Q04DX002 (ip), vehicle: saline): 102 % of control
T/C (dose: 200.0 mg/kg/injection, schedule: Q04DX002 (ip), vehicle: saline): 104 % of control
T/C (dose: 400.0 mg/kg/injection, schedule: Q04DX002 (ip), vehicle: saline): 99 % of control

CC(=O)OCc1c(-c2ccccc2)nc2sccn12
T/C (dose: 100.0 mg/kg/injection, schedule: Q01DX001 (ip), vehicle: Klucel (hydroxypropylcellulose) (HPC)): 98 % of control
T/C (dose: 200.0 mg/kg/injection, schedule: Q01DX001 (ip), vehicle: Klucel (hydroxypropylcellulose) (HPC)): 100 % of control

Nc1nnc2nc(CC(=O)c3cccc([N+](=O)[O-])c3Cl)c(=O)[nH]n12
T/C (dose: 15.0 mg/kg/injection, schedule: Q01DX005 (ip), vehicle: saline with Tween-80): 106 % of control
T/C (dose: 30.0 mg/kg/injection, schedule: Q01DX005 (ip), vehicle: saline with Tween-80): 98 % of control
T/C [6]: 100 % of control and 103 % of control

C(=NCCN=Cc1cc2c(c3ccccc13)CCCC2)c1cc2c(c3ccccc13)CCCC2
T/C [9]: 96 % of control
T/C [10]: 91 % of control
T/C [11]: 88 % of control

CCOc1ccc(C(CC(=O)O)CC(=O)N(CCCl)CCCl)cc1 (centres undefined)
T/C (dose: 100.0 mg/kg/injection, schedule: Q04DX003 (ip), vehicle: suspension in saline): 101 % of control
T/C (dose: 200.0 mg/kg/injection, schedule: Q04DX003 (ip), vehicle: suspension in saline): 102 % of control
T/C (dose: 400.0 mg/kg/injection, schedule: Q04DX003 (ip), vehicle: suspension in saline): 105 % of control

CN(C)CCCOC1=Nc2ccccc2O/C1=C/c1ccccc1
T/C (dose: 12.5 mg/kg/injection, schedule: Q04DX003 (ip), vehicle: saline): 98 % of control
T/C (dose: 25.0 mg/kg/injection, schedule: Q04DX003 (ip), vehicle: saline): 94 % of control
T/C (dose: 50.0 mg/kg/injection, schedule: Q04DX003 (ip), vehicle: saline): 97 % of control
T/C (dose: 100.0 mg/kg/injection, schedule: Q04DX003 (ip), vehicle: saline): 97 % of control

COC(=O)C(CC(C)C)NC(=O)C(Cc1c[nH]c2ccccc12)NC(=O)OC(C)(C)C (centres undefined)
T/C (dose: 10.7 mg/kg/injection, schedule: Q01DX009 (ip), vehicle: other): 100 % of control
T/C (dose: 21.3 mg/kg/injection, schedule: Q01DX009 (ip), vehicle: other): 93 % of control
T/C (dose: 42.5 mg/kg/injection, schedule: Q01DX009 (ip), vehicle: other): 93 % of control
T/C (dose: 85.0 mg/kg/injection, schedule: Q01DX009 (ip), vehicle: other): 93 % of control
T/C (dose: 170.0 mg/kg/injection, schedule: Q01DX009 (ip), vehicle: other): 98 % of control

CN(Cc1cnc2nc(N)nc(N)c2n1)c1ccc(C(=O)NC(CCC(=O)OCc2cc3c(cc2Cl)OCO3)C(=O)OCc2cc3c(cc2Cl)OCO3)cc1 (centres undefined)
T/C (dose: 0.94 mg/kg/injection, schedule: Q01DX005 (ip), vehicle: saline with Tween-80): 166 % of control
T/C (dose: 1.87 mg/kg/injection, schedule: Q01DX005 (ip), vehicle: saline with Tween-80): 184 % of control and 186 % of control
T/C (dose: 7.5 mg/kg/injection, schedule: Q01DX005 (ip), vehicle: saline with Tween-80): 99 % of control and 118 % of control

O=[N+]([O-])c1cc(Cl)ccc1Cl
T/C [15]: 100 % of control
T/C [16]: 100 % of control
T/C [17]: 91 % of control

O=[N+]([O-])c1ccc(/C=C/c2cccs2)c([N+](=O)[O-])c1
T/C [3]: 105 % of control
T/C [4]: 94 % of control
T/C [5]: 88 % of control

Cc1cnc(C2OCCO2)c2cccc(N)c12
T/C [3]: 104 % of control
T/C [4]: 105 % of control
T/C [5]: 112 % of control
